Patent US11629123B2, “Selenopsammaplin A and derivative thereof, preparation method therefor, and composition for preventing and treating cancer, containing same as active ingredients” (priority 2017, dated 2023)
“Also recorded” adds a separate entry of the source. Read-outs that look alike come from different tables or passages of the source.

Assays:
Type in all cases: cell-based
[1] = tested on: colorectal cancer cell line HCT116; experiment: cells
Experimental: (§1) To confirm the in vitro growth inhibitory efficacy of the samples prepared in Examples 1 to 28 against human lung cancer and colorectal cancer cell lines, the experiments were performed as follows by applying the method described in the literature (Lee S K et al ([…]) Chem Biol Interact 115:215-28). A human lung cancer cell line A549 and a colorectal cancer cell line HCT116 were acquired from the American Type Culture Collection (ATCC, Manassas, Va., USA) and used.
(§2) A549, HCT116 cells were subcultured once or twice weekly under conditions of 37° C. and 5% CO2 using Roswell Park Memorial Institute (RPMI) Medium 1640 (RPMI 1640) containing 10% heat-inactivated Fetal Bovine Serum (FBS), 100 units/mL penicillin, 100 μg/mL streptomycin, and 250 ng/mL amphotericin B. All cells were thawed from liquid nitrogen, subcultured three times or more, and then used in the experiment.
(§3) The effects of the compounds obtained in Examples 1 to 28 on cell growth were measured by a sulforhodamine B (SRB) method (Lee et al (1998) Chem Biol Interact 115: 215-28).
(§4) Specifically, the human lung cancer and colon cancer cell lines used in the present invention were subcultured in a RPMI medium containing 10% FBS, 1% PSF, and the like, 10 μl of a sample dissolved in 10% DMSO and 190 μl (5×10^4 cells/ml) of the cell suspension were placed in each well of a 96-well plate. 190 μl of the cell suspension was placed in at least 16 wells, cultured for 30 minutes, and used as a negative control (zero-day control) before the experiment. The cultured cells were fixed with 10% trichloroacetic acid (TCA) and then stained with an SRB solution, the staining solution was dissolved with 10 mM Tris-base, and absorbance was measured at 515 nm. Using the cell culture in 10% DMSO as a control, cell viability according to the treatment with each test sample was measured using the following Equation 1. % Cell viability=(OD(sample)−OD(0-day))/(OD(10% DMSO)−OD(0-day))×100 [Equation 1]
(§5) When the control in which the sample was not treated was defined as 100%, the value of the sample treatment group was shown as a percentage with respect to the control, and each test sample treatment was determined by the mean value±SEM of the duplicate or triplicate test. The IC50 value is the concentration of the test sample for 50% viability.

[2] = tested on: human lung cancer cell line A549; experiment: cells
Experimental: as §1, §2, §3, §4, §5

[3] = tested on: human lung cancer and colorectal cancer cell lines; experiment: In vitro growth inhibition (SRB), summary over both cell lines; conditions: compared with control compound etoposide
Experimental: as §1, §2, §3, §4, §5

[4] = Homo sapiens, HCT-116, read-out: HCT116-LC50
[5] = Homo sapiens, A549, read-out: A549-LC50
[6] = Homo sapiens, HCT-116, read-out: HCT116-LC50, Table 2, SRB, concentration for 50% viability
[7] = Homo sapiens, A549, read-out: A549-LC50, Table 2, SRB, concentration for 50% viability
[8] = Homo sapiens, HCT-116, read-out: HCT116-LC50, Table 3, SRB, concentration for 50% viability
[9] = Homo sapiens, A549, read-out: A549-LC50, Table 3, SRB, concentration for 50% viability

Compound | CC50 [1, 4] [nM] | CC50 [2, 5] [nM] | CC50 [1, 8] [nM] | CC50 [2, 9] [nM] | further results
CC(C)(C)c1ccc(C/C(=N\O)C(=O)NCC[Se][Se]CCNC(=O)/C(Cc2ccc(C(C)(C)C)cc2)=N/O)cc1 [SSM-13, (2E,2′E)-N,N′-(diselanediylbis(ethane-2,1-diyl))bis(3-(4-(tert-butyl)phenyl)-2-(hydroxyimino)propanamide)] | 130 | 100 |  |  | 
O=C(NCC[Se][Se]CCNC(=O)/C(Cc1ccc(O)c(Br)c1)=N/O)/C(Cc1ccc(O)c(Br)c1)=N/O [SSM-1, (2E,2′E)-N,N′-(diselanediylbis(ethane-2,1-diyl))bis(3-(3-bromo-4-hydroxyphenyl)-2-(hydroxyimino)propanamide)] |  |  |  |  | cancer cell growth inhibitory activity compared to etoposide [3]: higher inhibitory activity than a control compound etoposide; also recorded: excellent cancer cell growth inhibitory potential even compared to etoposide; CC50 [1, 6]: 10 nM; CC50 [2, 7]: 30 nM
O=C(NCC[Se]Sc1ccccc1)/C(Cc1ccc(O)c(Cl)c1)=N/O [SSM-16, (E)-3-(3-chloro-4-hydroxyphenyl)-2-(hydroxyimino)-N-(2-((phenylthio)selanyl)ethyl)propanamide] |  |  | 90 | 110 | 
O=C(NCC[Se]Sc1ccccc1)/C(Cc1ccc(OCc2ccccc2)cc1)=N/O [SSM-25, (E)-3-(4-(benzyloxy)phenyl)-2-(hydroxyimino)-N-(2-((phenylthio)selanyl)ethyl)propanamide] |  |  | 80 | 180 | 
O=C(NCC[Se]Sc1ccccc1)/C(Cc1ccc(Cl)cc1)=N/O [SSM-20, (E)-3-(4-chlorophenyl)-2-(hydroxyimino)-N-(2-((phenylthio)selanyl)ethyl)propanamide] | 330 | 490 |  |  | 
CCOc1ccc(C/C(=N\O)C(=O)NCC[Se]Sc2ccccc2)cc1 [SSM-24, (E)-3-(4-ethoxyphenyl)-2-(hydroxyimino)-N-(2-((phenylthio)selanyl)ethyl)propanamide] |  |  | 130 | 330 | 
O=C(NCC[Se]Sc1ccccc1)/C(Cc1ccc(Cl)c(Cl)c1)=N/O [SSM-23, (E)-3-(3,4-dichlorophenyl)-2-(hydroxyimino)-N-(2-((phenylthio)selanyl)ethyl)propanamide] | 50 | 280 |  |  | 
O=C(NCC[Se]Sc1ccccc1)/C(Cc1ccc2ccccc2c1)=N/O [SSM-28, (E)-2-(hydroxyimino)-3-(naphthalen-2-yl)-N-(2-((phenylthio)selanyl)ethyl)propanamide] |  |  | 20 | 120 | 
O=C(NCC[Se]Sc1ccccc1)/C(Cc1ccc(Br)cc1)=N/O [SSM-21, (E)-3-(4-bromophenyl)-2-(hydroxyimino)-N-(2-((phenylthio)selanyl)ethyl)propanamide] |  |  | 180 | 510 | 
O=C(NCC[Se][Se]CCNC(=O)/C(Cc1ccc(F)cc1)=N/O)/C(Cc1ccc(F)cc1)=N/O [SSM-5, (2E,2′E)-N,N′-(diselanediylbis(ethane-2,1-diyl))bis(3-(4-fluorophenyl)-2-(hydroxyimino)propanamide)] |  |  |  |  | CC50 [1, 6]: 110 nM; CC50 [2, 7]: 100 nM
O=C(NCC[Se]Sc1ccccc1)/C(Cc1ccc([N+](=O)[O-])cc1)=N/O [SSM-26, (E)-2-(hydroxyimino)-3-(4-nitrophenyl)-N-(2-((phenylthio)selanyl)ethyl)propanamide] | 120 | 120 |  |  | 
O=C(NCC[Se]Sc1ccccc1)/C(Cc1ccc(F)cc1)=N/O [SSM-19, (E)-3-(4-fluorophenyl)-2-(hydroxyimino)-N-(2-((phenylthio)selanyl)ethyl)propanamide] |  |  | 330 | 490 | 
O=C(NCC[Se]Sc1ccccc1)/C(Cc1ccccc1)=N/O [SSM-18, (E)-2-(hydroxyimino)-3-phenyl-N-(2-((phenylthio)selanyl)ethyl)propanamide] |  |  | 130 | 280 | 
O=C(NCC[Se][Se]CCNC(=O)/C(Cc1ccc(F)c(F)c1)=N/O)/C(Cc1ccc(F)c(F)c1)=N/O [SSM-8, (2E,2′E)-N,N′-(diselanediylbis(ethane-2,1-diyl))bis(3-(3,4-difluorophenyl)-2-(hydroxyimino)propanamide)] | 190 | 200 |  |  | 
CCOc1ccc(C/C(=N\O)C(=O)NCC[Se][Se]CCNC(=O)/C(Cc2ccc(OCC)cc2)=N/O)cc1 [SSM-10, (2E,2′E)-N,N′-(diselanediylbis(ethane-2,1-diyl))bis(3-(4-ethoxyphenyl)-2-(hydroxyimino)propanamide)] |  |  |  |  | cancer cell growth inhibitory activity compared to etoposide [3]: higher inhibitory activity than a control compound etoposide; also recorded: excellent cancer cell growth inhibitory potential even compared to etoposide; CC50 [1, 6]: 70 nM; CC50 [2, 7]: 50 nM
O=C(NCC[Se][Se]CCNC(=O)/C(Cc1ccc(Cl)cc1)=N/O)/C(Cc1ccc(Cl)cc1)=N/O [SSM-6, (2E,2′E)-N,N′-(diselanediylbis(ethane-2,1-diyl))bis(3-(4-chlorophenyl)-2-(hydroxyimino)propanamide)] | 280 | 250 |  |  | 
O=C(NCC[Se]Sc1ccccc1)/C(Cc1ccc(O)c(Br)c1)=N/O [SSM-15, (E)-3-(3-bromo-4-hydroxyphenyl)-2-(hydroxyimino)-N-(2-((phenylthio)selanyl)ethyl)propanamide] |  |  | 10 | 100 | 
COc1cc([C@@H]2c3cc4c(cc3[C@@H](O[C@@H]3O[C@@H]5CO[C@@H](C)O[C@H]5[C@H](O)[C@H]3O)[C@H]3COC(=O)[C@H]23)OCO4)cc(OC)c1O [Etoposide, reference compound] |  |  | 610 | 710 | CC50 [1, 6]: 900 nM; CC50 [2, 7]: 420 nM
O=C(NCC[Se][Se]CCNC(=O)/C(Cc1ccc(OCc2ccccc2)cc1)=N/O)/C(Cc1ccc(OCc2ccccc2)cc1)=N/O [SSM-11, (2E,2′E)-N,N′-(diselanediylbis(ethane-2,1-diyl))bis(3-(4-(benzyloxy)phenyl)-2-(hydroxyimino)propanamide)] |  |  |  |  | CC50 [1, 6]: 100 nM; CC50 [2, 7]: 140 nM
O=C(NCC[Se]Sc1ccccc1)/C(Cc1ccc(O)c(F)c1)=N/O [SSM-17, (E)-3-(3-fluoro-4-hydroxyphenyl)-2-(hydroxyimino)-N-(2-((phenylthio)selanyl)ethyl)propanamide] |  |  | 200 | 290 | 
O=C(NCC[Se][Se]CCNC(=O)/C(Cc1ccc(Br)cc1)=N/O)/C(Cc1ccc(Br)cc1)=N/O [SSM-7, (2E,2′E)-N,N′-(diselanediylbis(ethane-2,1-diyl))bis(3-(4-bromophenyl)-2-(hydroxyimino)propanamide)] |  |  |  |  | CC50 [1, 6]: 300 nM; CC50 [2, 7]: 320 nM
O=C(NCC[Se]Sc1ccccc1)/C(Cc1ccc(F)c(F)c1)=N/O [SSM-22, (E)-3-(3,4-difluorophenyl)-2-(hydroxyimino)-N-(2-((phenylthio)selanyl)ethyl)propanamide] | 310 | 480 |  |  | 
O=C(NCC[Se][Se]CCNC(=O)/C(Cc1ccc2ccccc2c1)=N/O)/C(Cc1ccc2ccccc2c1)=N/O [SSM-14, (2E,2′E)-N,N′-(diselanediylbis(ethane-2,1-diyl))bis(2-(hydroxyimino)-3-(naphthalen-2-yl)propanamide)] |  |  |  |  | CC50 [1, 6]: 120 nM; CC50 [2, 7]: 380 nM
O=C(NCC[Se][Se]CCNC(=O)/C(Cc1ccc(Cl)c(Cl)c1)=N/O)/C(Cc1ccc(Cl)c(Cl)c1)=N/O [SSM-9, (2E,2′E)-N,N′-(diselanediylbis(ethane-2,1-diyl))bis(3-(3,4-dichlorophenyl)-2-(hydroxyimino)propanamide)] | 520 | 280 |  |  | 
O=C(NCCSSCCNC(=O)/C(Cc1ccc(O)c(Br)c1)=N/O)/C(Cc1ccc(O)c(Br)c1)=N/O [Psammaplin A] |  |  |  |  | CC50 ([1]; Table 2, SRB, concentration for 50% viability, read-out: HCT116-LC50): 610 nM; CC50 ([1]; Table 3, SRB, concentration for 50% viability, read-out: HCT116-LC50): 610 nM; CC50 ([2]; Table 2, SRB, concentration for 50% viability, read-out: A549-LC50): 1760 nM; CC50 ([2]; Table 3, SRB, concentration for 50% viability, read-out: A549-LC50): 1760 nM
